Results: ChEMBL document CHEMBL1201862, “PubChem BioAssay data set” (2004)
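96-well plates; 48 h exposure; 5 concentrations. Endpoints by linear interpolation between flanking doses. Not reached: highest tested concentration assigned. At the GI50, growth is halved.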 The source made the active and inactive calls. No stated cut-off is given here; in the data, active = GI50 up to about 1.1 µM and inactive = higher.

Experiments:
Assay in all cases: NCI-60 cell line screen, 48 h
OVCAR-4 = test system: OVCAR-4
SF-539 = test system: SF-539
IGROV-1 = test system: IGROV-1
LOX IMVI = test system: LOX IMVI
RPMI-8226 = test system: RPMI-8226
BT-549 = test system: BT-549
SK-OV-3 = test system: SK-OV-3
CCRF-CEM = test system: CCRF-CEM
Hs-578T = test system: Hs-578T
SK-MEL-5 = test system: SK-MEL-5
HOP-92 = test system: HOP-92
MCF7 = test system: MCF7
SN12C = test system: SN12C
T47D = test system: T47D
KM12 = test system: KM12
A498 = test system: A498
DU-145 = test system: DU-145
COLO 205 = test system: COLO 205
SF-295 = test system: SF-295

SMILES	GI50 (OVCAR-4)	GI50 (SF-539)	GI50 (IGROV-1)	GI50 (LOX IMVI)	GI50 (RPMI-8226)	GI50 (BT-549)	GI50 (SK-OV-3)	GI50 (CCRF-CEM)	GI50 (Hs-578T)	GI50 (SK-MEL-5)	GI50 (HOP-92)	GI50 (MCF7)	GI50 (SN12C)	GI50 (T47D)	GI50 (KM12)	GI50 (A498)	GI50 (DU-145)	GI50 (COLO 205)	GI50 (SF-295)
CCCc1cn2c(/C=N/NC(=N)N)c(-c3cccc([N+](=O)[O-])c3)nc2s1	1.47 µM (inactive)	1.69 µM (inactive)	1.92 µM (inactive)	2.07 µM (inactive)	1.8 µM (inactive)	1.57 µM (inactive)	2.22 µM (inactive)	0.746 µM (active)	2.68 µM (inactive)	1.98 µM (inactive)	11.1 µM (inactive)	2.48 µM (inactive)	1.21 µM (inactive)	1.94 µM (inactive)	1.76 µM (inactive)	17.3 µM (inactive)	1.74 µM (inactive)	1.88 µM (inactive)	1.84 µM (inactive)
O=C(Nn1cnn2c(=O)c3ccccc3nc2c1=O)c1ccccc1	> 100 µM (inactive)	> 100 µM (inactive)	> 100 µM (inactive)	> 100 µM (inactive)	> 100 µM (inactive)	> 100 µM (inactive)	> 100 µM (inactive)	> 100 µM (inactive)	> 100 µM (inactive)	> 100 µM (inactive)	> 100 µM (inactive)	> 100 µM (inactive)	> 100 µM (inactive)	> 100 µM (inactive)	> 100 µM (inactive)	> 100 µM (inactive)	> 100 µM (inactive)	> 100 µM (inactive)	> 100 µM (inactive)
COc1ccc(S(=O)(=O)NC(CCC(=O)NC(N)=O)C(=O)NC(N)=O)cc1 (configuration not stated)	> 100 µM (inactive)	> 100 µM (inactive)	> 100 µM (inactive)	> 100 µM (inactive)	> 100 µM (inactive)	> 100 µM (inactive)	> 100 µM (inactive)	> 100 µM (inactive)	> 100 µM (inactive)	> 100 µM (inactive)	> 100 µM (inactive)	> 100 µM (inactive)	> 100 µM (inactive)	> 100 µM (inactive)	> 100 µM (inactive)	> 100 µM (inactive)	> 100 µM (inactive)	> 100 µM (inactive)	> 100 µM (inactive)
CCOC(=O)c1c(NC(=O)c2cccs2)sc2c1CCCC2	60.3 µM (inactive)	24.4 µM (inactive)	31.3 µM (inactive)	> 100 µM (inactive)	> 100 µM (inactive)	58.7 µM (inactive)	25.5 µM (inactive)	> 100 µM (inactive)	27.6 µM (inactive)	> 100 µM (inactive)	43.3 µM (inactive)	> 79.6 µM (inactive)	> 90.4 µM (inactive)	30.6 µM (inactive)	> 100 µM (inactive)	24.3 µM (inactive)	> 80.4 µM (inactive)	> 100 µM (inactive)	27.3 µM (inactive)
[N-]=[N+]=Nc1c(C=O)c(=O)n(-c2ccccc2)c2ccccc12	16.7 µM (inactive)	73.5 µM (inactive)	16.6 µM (inactive)	14.8 µM (inactive)	> 10 µM (inactive)	31.8 µM (inactive)	31.5 µM (inactive)	3.09 µM (inactive)	25.1 µM (inactive)	14.1 µM (inactive)	13.4 µM (inactive)	27 µM (inactive)	42.3 µM (inactive)	13.9 µM (inactive)	54.5 µM (inactive)	0.0778 µM (active)	25.5 µM (inactive)	13.5 µM (inactive)	75.5 µM (inactive)
CC(SCc1ccccc1)C(=O)O (configuration not stated)	> 100 µM (inactive)	> 100 µM (inactive)	> 100 µM (inactive)	> 100 µM (inactive)	> 100 µM (inactive)	> 100 µM (inactive)	> 100 µM (inactive)	> 100 µM (inactive)	> 100 µM (inactive)	> 100 µM (inactive)	> 100 µM (inactive)	> 100 µM (inactive)	> 100 µM (inactive)	> 100 µM (inactive)	> 100 µM (inactive)	> 100 µM (inactive)	> 100 µM (inactive)	> 100 µM (inactive)	> 100 µM (inactive)
O=C1C(=Cc2ccco2)C(=O)C2CCCCC12 (configuration not stated)	> 100 µM (inactive)	> 100 µM (inactive)	> 100 µM (inactive)	> 100 µM (inactive)	> 100 µM (inactive)	> 100 µM (inactive)	> 100 µM (inactive)	> 100 µM (inactive)	> 100 µM (inactive)	> 100 µM (inactive)	> 100 µM (inactive)	> 100 µM (inactive)	> 100 µM (inactive)	> 100 µM (inactive)	> 100 µM (inactive)	> 100 µM (inactive)	> 100 µM (inactive)	> 100 µM (inactive)	> 100 µM (inactive)
CC(=O)NC1CCC(NC(=O)OC(C)(C)C)C(NC(=O)OC(C)(C)C)C1 (configuration not stated)	> 100 µM (inactive)	> 100 µM (inactive)	> 100 µM (inactive)	> 100 µM (inactive)	> 100 µM (inactive)	> 100 µM (inactive)	> 100 µM (inactive)	> 100 µM (inactive)	> 100 µM (inactive)	> 100 µM (inactive)	> 100 µM (inactive)	> 100 µM (inactive)	> 100 µM (inactive)	> 100 µM (inactive)	> 100 µM (inactive)	> 100 µM (inactive)	> 100 µM (inactive)	> 100 µM (inactive)	> 100 µM (inactive)
C1CC2CN(CCCN3CCOCC3)C(C1)O2 (configuration not stated)	> 100 µM (inactive)	> 100 µM (inactive)	> 100 µM (inactive)	> 100 µM (inactive)	> 100 µM (inactive)	> 100 µM (inactive)	> 100 µM (inactive)	–	> 100 µM (inactive)	> 100 µM (inactive)	> 100 µM (inactive)	> 100 µM (inactive)	> 100 µM (inactive)	> 100 µM (inactive)	> 100 µM (inactive)	> 100 µM (inactive)	> 100 µM (inactive)	> 100 µM (inactive)	> 100 µM (inactive)
O=Cc1ccc(Oc2c3ccccc3nc3ccccc23)cc1	4.63 µM (inactive)	1.76 µM (inactive)	–	2.9 µM (inactive)	2.39 µM (inactive)	14.8 µM (inactive)	4.63 µM (inactive)	2.71 µM (inactive)	2.53 µM (inactive)	11.5 µM (inactive)	4.74 µM (inactive)	4.42 µM (inactive)	2.85 µM (inactive)	3.66 µM (inactive)	11.1 µM (inactive)	0.869 µM (active)	3.84 µM (inactive)	3.42 µM (inactive)	19.6 µM (inactive)
Oc1ccc(/C=C/c2ccc3cccc(O)c3n2)cc1O	7.5 µM (inactive)	3.13 µM (inactive)	1.44 µM (inactive)	4.48 µM (inactive)	0.692 µM (active)	1.61 µM (inactive)	23.7 µM (inactive)	0.759 µM (active)	36.1 µM (inactive)	3.02 µM (inactive)	15.9 µM (inactive)	2.42 µM (inactive)	2.94 µM (inactive)	1.75 µM (inactive)	5.45 µM (inactive)	11.5 µM (inactive)	2.79 µM (inactive)	14.3 µM (inactive)	8.17 µM (inactive)
C[C@@H]1C[C@H]2OC(=O)[C@@]3(C)CCC[C@@](C)([C@@H]23)[C@@]1(O)CCc1ccoc1	> 64.9 µM (inactive)	> 100 µM (inactive)	> 100 µM (inactive)	> 100 µM (inactive)	45.1 µM (inactive)	> 49.8 µM (inactive)	> 100 µM (inactive)	74.5 µM (inactive)	> 100 µM (inactive)	40.6 µM (inactive)	> 100 µM (inactive)	> 80.2 µM (inactive)	> 100 µM (inactive)	> 100 µM (inactive)	> 100 µM (inactive)	> 100 µM (inactive)	> 100 µM (inactive)	> 100 µM (inactive)	> 100 µM (inactive)
O=c1c2cc(S(=O)(=O)O)ccc2nc(COc2ccc(Oc3ccc(Cl)cc3Cl)cc2)n1-c1ccc(Oc2ccc(Cl)cc2)cc1Cl	25.2 µM (inactive)	16.7 µM (inactive)	23.1 µM (inactive)	16.4 µM (inactive)	21.1 µM (inactive)	17.1 µM (inactive)	22.6 µM (inactive)	27.7 µM (inactive)	20 µM (inactive)	18.6 µM (inactive)	12.8 µM (inactive)	20.7 µM (inactive)	17.7 µM (inactive)	33.1 µM (inactive)	28.5 µM (inactive)	23.3 µM (inactive)	38.3 µM (inactive)	17.9 µM (inactive)	18.3 µM (inactive)
CC(C(=O)c1ccccc1)C(c1ccccc1)N1CCOCC1 (configuration not stated)	> 100 µM (inactive)	> 100 µM (inactive)	> 100 µM (inactive)	> 100 µM (inactive)	54.3 µM (inactive)	> 100 µM (inactive)	> 100 µM (inactive)	36.1 µM (inactive)	> 100 µM (inactive)	> 100 µM (inactive)	> 100 µM (inactive)	> 100 µM (inactive)	> 100 µM (inactive)	> 100 µM (inactive)	> 100 µM (inactive)	> 100 µM (inactive)	> 100 µM (inactive)	> 100 µM (inactive)	> 100 µM (inactive)
CCOC(=O)c1ccc(NCC#CCN2CCOCC2)cc1	> 100 µM (inactive)	> 100 µM (inactive)	> 100 µM (inactive)	> 100 µM (inactive)	> 100 µM (inactive)	> 100 µM (inactive)	> 100 µM (inactive)	60.1 µM (inactive)	> 100 µM (inactive)	26.9 µM (inactive)	> 100 µM (inactive)	66.4 µM (inactive)	> 100 µM (inactive)	> 100 µM (inactive)	> 100 µM (inactive)	> 100 µM (inactive)	> 100 µM (inactive)	38 µM (inactive)	–
